For 14 compounds, IC50 results are on record in patent publication US9718796B2, “Substituted benzoazepines as toll-like receptor modulators” (VENTIRX PHARMACEUTICALS, INC., priority 2011, dated 2017).

For the experiment, the target named is T1, hTLR8 (Homo sapiens, UniProt Q9NR97).
T1 construct: host or cells: HEK293 cells stably transfected with hTLR8
T1 sequence (Q9NR97 27-1041): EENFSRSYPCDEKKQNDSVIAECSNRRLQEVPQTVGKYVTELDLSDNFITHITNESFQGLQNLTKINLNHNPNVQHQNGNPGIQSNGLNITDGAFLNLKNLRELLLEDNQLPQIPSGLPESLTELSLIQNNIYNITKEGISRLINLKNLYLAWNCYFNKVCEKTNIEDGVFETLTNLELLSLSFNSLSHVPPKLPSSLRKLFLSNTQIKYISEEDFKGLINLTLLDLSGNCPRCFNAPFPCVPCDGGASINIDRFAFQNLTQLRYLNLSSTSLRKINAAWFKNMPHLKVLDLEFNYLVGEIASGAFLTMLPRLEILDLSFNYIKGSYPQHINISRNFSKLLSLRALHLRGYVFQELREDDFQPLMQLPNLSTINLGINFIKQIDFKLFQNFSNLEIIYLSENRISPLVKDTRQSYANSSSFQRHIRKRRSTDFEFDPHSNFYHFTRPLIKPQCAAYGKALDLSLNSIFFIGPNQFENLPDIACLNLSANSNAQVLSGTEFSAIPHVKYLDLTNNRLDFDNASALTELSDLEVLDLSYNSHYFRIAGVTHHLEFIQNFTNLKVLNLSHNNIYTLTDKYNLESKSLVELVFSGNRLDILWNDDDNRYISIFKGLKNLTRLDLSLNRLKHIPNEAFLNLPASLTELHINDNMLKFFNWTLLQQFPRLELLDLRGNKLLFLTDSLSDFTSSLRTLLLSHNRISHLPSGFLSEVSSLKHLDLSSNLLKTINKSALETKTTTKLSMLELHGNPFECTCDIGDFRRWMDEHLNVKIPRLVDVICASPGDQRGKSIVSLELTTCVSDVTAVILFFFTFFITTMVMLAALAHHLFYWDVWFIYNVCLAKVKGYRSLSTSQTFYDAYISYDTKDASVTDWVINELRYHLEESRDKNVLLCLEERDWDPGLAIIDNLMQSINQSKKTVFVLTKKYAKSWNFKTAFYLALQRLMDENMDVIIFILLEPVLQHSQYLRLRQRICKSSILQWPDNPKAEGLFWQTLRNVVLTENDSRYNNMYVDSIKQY
The experiment is described as follows: HEK-293 hTLR8 transfectant antagonist assay (NF-κB driven SEAP reporter). It is filed as cell-based. Particulars: hTLR8 reporter cells. Here is the method: The HEK-293 hTLR transfectant assay employs HEK293 cells stably transfected with various hTLRs and transiently co-transfected with a plasmid containing an NF-κB driven secreted embryonic alkaline phosphate (SEAP) reporter gene. Stimulation of TLRs activates their downstream signaling pathways and induces nuclear translocation of the transcription factor NF-κB. Reporter gene activity is then measured using a spectrophotometric assay. To measure antagonist activity, human embryonic kidney (HEK) cells (e.g., 293XL-hTLR8 cells available from InvivoGen, San Diego, Calif.) are prepared according to supplier's instructions and incubated with various concentrations of test compound overnight. The amount of induced […] is measured by reading the absorbance at 650 nm. The compounds of the invention have an MC50 of 25 μM or less, wherein MC50 is defined as the concentration at which 50% of maximum induction is seen. For the TLR8 antagonist assays, cells are transiently transfected with the reporter gene on Day 1 per the supplier's instructions. Antagonist compounds are added to the cultures on Day 2 followed by addition of a TLR8 agonist approximately 2 hours later. Cultures are incubated overnight and SEAP activity is measured on Day 3. In a typical assay, 50,000 HEK239 hTLR8 cells are seeded per culture well and transiently transfected with the SEAP reporter gene. Antagonists are added to cultures in culture medium and […] DMSO over a concentration range of 0.1 nanomolar to 10 micromolar. TLR8 agonists are added to cultures 2 hours later at a fixed concentration (e.g., 1 micromolar or 10 micromolar of Compound A) and cultures are then incubated for 16-24 hrs at 37° C. in a humidified CO incubator. Antagonists are also evaluated for activity in the absence of agonist. TLR8 antagonist activity was measured in a hTLR8 assay format, measuring IC50 values. […] IC50s were then calculated.

[1] abbreviates: IC50, nM, vs. 3M002 10 μM, agonist 3M002 10 μM.
The mark [2] stands for this setting: IC50, nM, vs. VTX-378 1 μM, TLR8 agonist VTX-378 (Compound A) 1 μM.
The mark [3] stands for this setting: IC50, nM, vs. VTX-378 10 μM, TLR8 agonist VTX-378 (Compound A) 10 μM.
[4] abbreviates: IC50, nM, vs. 3M002 1 μM, agonist 3M002 1 μM.
Where [5] appears, read: TLR8 agonist VTX-378 (Compound A) 0.5 μM, read-out: IC50, nM, vs. VTX-378 0.5 μM.

Molecules are shown by their SMILES. Where two headings read alike, the source gives them in different places.

Take `CCOC(=O)C1=Cc2cc(Oc3ccc(C(=O)N(C)C)cc3)ccc2N=C(N)C1` [Compound 3093]: the IC50 reads like this: under setting [1], at least 10000 nM; under setting [2], at least 10000 nM; under setting [3], at least 10000 nM.

Take `CCOC(=O)C1=Cc2cc(-c3ccccc3Cl)ccc2N=C(N)C1` [Compound 3127, Ethyl 2-amino-7-(2-chlorophenyl)-3H-1-benzazepine-4-carboxylate]: the IC50 reads like this: under setting [4], below 1000 nM; under setting [1], 1000 to 10000 nM; under setting [2], below 1000 nM; under setting [5], below 1000 nM.

For `CCCN(CC(N)=O)C(=O)C1=Cc2cc(-c3ccc(C(=O)N4CCCC4)cc3Cl)ccc2N=C(N)C1` [Compound 3342, 2-Amino-N-(2-amino-2-oxoethyl)-7-[2-chloro-4-(pyrrolidin-1-ylcarbonyl)phenyl]-N-propyl-3H-1-benzazepine-4-carboxamide], the IC50 by setting is: under setting [1], below 1000 nM; under setting [2], below 1000 nM; under setting [5], below 1000 nM.

As to `CC(C)NC(=O)C1=Cc2cc(-c3ccc(C(=O)N4CCCC4)cc3)ccc2N=C(N)C1` [Compound 3009, 2-Amino-N-isopropyl-7-[4-(pyrrolidin-1-ylcarbonyl)phenyl]-3H-1-benzazepine-4-carboxamide], the IC50 is, setting by setting: under setting [2], 1000 to 10000 nM; under setting [3], at least 10000 nM.

For the compound `CCOC(=O)C1=Cc2cc(Nc3ccccc3)ccc2N=C(N)C1` [Compound 3097], the IC50 is 1000 to 10000 nM under setting [1], 1000 to 10000 nM under setting [2] and below 1000 nM under setting [5].

With `CCOC(=O)C1=Cc2cc(-c3ccc(C(=O)N4CCCC4)cc3C)ccc2N=C(N)C1` [Compound 3119, Ethyl 2-amino-7-[2-methyl-4-(pyrrolidin-1-ylcarbonyl)phenyl]-3H-1-benzazepine-4-carboxylate], the IC50 by setting is: under setting [1], below 1000 nM; under setting [2], below 1000 nM; under setting [5], below 1000 nM.

Regarding `CCOC(=O)C1=Cc2cc(-c3ccccc3C)ccc2N=C(N)C1` [Compound 3096, Ethyl 2-amino-7-(2-methylphenyl)-3H-1-benzazepine-4-carboxylate], the IC50 by setting is: under setting [2], 1000 to 10000 nM; under setting [3], at least 10000 nM.

`CCOC(=O)C1=Cc2cc(C(=O)OC(C)C)ccc2N=C(N)C1` [Compound 3197]: the IC50 reads like this: under setting [2], 1000 to 10000 nM; under setting [3], 1000 to 10000 nM.

As to `CCOC(=O)C1=Cc2cc(C3=CCN(C(=O)OCC)CC3)ccc2N=C(N)C1` [Compound 3202], the IC50 is below 1000 nM under setting [2] and below 1000 nM under setting [3].

As for `CCOC(=O)C1=Cc2cc(-c3cccc(OC)c3)ccc2N=C(N)C1` [Compound 3267, Ethyl 2-amino-7-(3-methoxyphenyl)-3H-1-benzazepine-4-carboxylate], the IC50 reads like this: under setting [1], 1000 to 10000 nM; under setting [2], 1000 to 10000 nM; under setting [5], 1000 to 10000 nM.

Regarding `CCOC(=O)C1=Cc2cc(Oc3ccccc3C)ccc2N=C(N)C1` [Compound 3128], the IC50 is, setting by setting: under setting [4], below 1000 nM; under setting [1], 1000 to 10000 nM; under setting [2], 1000 to 10000 nM; under setting [5], below 1000 nM.

As to `CCOC(=O)C1=Cc2cc(-c3ccc(S(=O)(=O)N(C)C)cc3)ccc2N=C(N)C1` [Compound 3055, Ethyl 2-amino-7-{4-[(dimethylamino)sulfonyl]phenyl}-3H-1-benzazepine-4-carboxylate], the IC50 under setting [2] lay in the range of 1000 to 10000 nM and the IC50 under setting [3] was at least 10000 nM.

Turning to `CCOC(=O)C1=Cc2cc(-c3ccccc3OC)ccc2N=C(N)C1` [Compound 3264, Ethyl 2-amino-7-(2-methoxyphenyl)-3H-1-benzazepine-4-carboxylate], the IC50 is below 1000 nM under setting [1], below 1000 nM under setting [2] and below 1000 nM under setting [5].

Consider `CCOC(=O)C1=Cc2cc(-c3cccc(C(=O)N(C)C)c3)ccc2N=C(N)C1` [Compound 3058, Ethyl 2-amino-7-[3-(dimethylcarbamoyl)phenyl]-3H-1-benzazepine-4-carboxylate], for which the IC50 was 1000 to 10000 nM under setting [2] and at least 10000 nM under setting [3].

As usually defined, the IC50 is the concentration at which inhibition is half-maximal.
